These results are taken from PubChem BioAssay AID1996.

Values after ≈ are worked out from the molar mass of the structure shown.

The kinetic solubility is solubility judged after dilution from a stock solution rather than from solid.

For this series the following is noted: buffer; pH 7.4; 200.0 µM.
In the case of `O=C(NC1CCN(Cc2ccc(F)cc2)CC1)c1ccccc1`, the kinetic solubility amounted to 0.0407 mg/mL (≈ 130 µM).
`CCCc1cc(=O)[nH]c(SCC(=O)Nc2c(C)n(C)n(-c3ccccc3)c2=O)n1` came in with a kinetic solubility above 0.062 mg/mL.
Under `CCc1ccc(/C=C2\SC(N3CCOCC3)=NC2=O)cc1` stands 0.0249 mg/mL (≈ 82.3 µM); under `Cc1csc(SCC(=O)NC(=O)C2CCCCC2)n1`, above 0.0448 mg/mL; under `CCc1nc2ccc(Cc3ccc4nc(CC)[nH]c4c3)cc2[nH]1`, above 0.0457 mg/mL.
Turning to `O=C(Nc1ccccc1Cl)c1ccc([N+](=O)[O-])o1`, the solubility (kinetic) amounted to 0.0394 mg/mL (≈ 148 µM).
Under `O=[N+]([O-])c1cccc(S(=O)(=O)NCCc2cccs2)c1` stands above 0.0469 mg/mL.
`Cn1c(SCC2CCCO2)nnc1-c1cccc([N+](=O)[O-])c1` (stereo unspecified): the kinetic solubility is above 0.0481 mg/mL.
Under `CCOc1ccc(-c2cn(-c3ccccc3OC)c(=S)[nH]2)cc1` stands 0.0177 mg/mL (≈ 54.2 µM); under `C=CCNc1nc(N)c([N+](=O)[O-])c(NCCO)n1`, above 0.0381 mg/mL; under `CSc1nc2c(c(=O)[nH]1)C(c1cccc(Cl)c1)CC(=O)N2` (stereo unspecified), 0.0046 mg/mL (≈ 14.3 µM).
Under `O=C(NC1CCC(O)CC1)c1ccc(Br)o1` (stereo unspecified) stands above 0.0432 mg/mL; under `COc1ccc(C(CNC(=O)c2cccc(S(=O)(=O)N3CCOCC3)c2)N2CCOCC2)cc1` (stereo unspecified), above 0.0734 mg/mL.
`Cc1ccc(NC(=O)CCn2cc(C(F)(F)F)ccc2=O)cc1` came in with a solubility (kinetic) of 0.0455 mg/mL (≈ 140 µM).
For `CC(C)(C)NC(=O)N1CCn2cccc2C1c1ccccc1F` (stereo unspecified), the kinetic solubility came to 0.04 mg/mL (≈ 127 µM).
Under `Fc1ccccc1N1CCN(CC2CCCCC2)CC1` stands 0.0062 mg/mL (≈ 22.4 µM); under `COc1ccc(OCCSc2nc(N)cc(=O)[nH]2)cc1`, 0.0207 mg/mL (≈ 70.6 µM).
In the case of `Cc1ccccc1C(=O)NCC(C)NC(=O)c1ccccc1C` (stereo unspecified) it was 0.0424 mg/mL (≈ 137 µM); in that of `CCOc1cccc2cc(C(=O)N3CC(C)OC(C)C3)c(=O)oc12` (stereo unspecified), above 0.0497 mg/mL; in that of `COc1ccc(NC(=O)CN2C(=O)NC3(CCCC3)C2=O)cc1`, 0.0401 mg/mL (≈ 126 µM).
In the case of `Cc1cc(C)nc(SC(C)CNS(=O)(=O)c2ccccc2)n1` (stereo unspecified) it was 0.0459 mg/mL (≈ 136 µM).
In turn, `Cc1ccc(NC(=O)CN2C(=O)S/C(=C\c3ccccn3)C2=O)cc1` returned a kinetic solubility of 0.0009 mg/mL (≈ 2.55 µM).
Under `O=C(Nc1ccccc1)N1CCc2c([nH]c3ccccc23)C1C(F)(F)F` (stereo unspecified) stands 0.0018 mg/mL (≈ 5.01 µM); under `CCC(C)c1ccc(NC(=O)c2[nH]c(C)c(C(C)=O)c2C)cc1` (stereo unspecified), 0.0005 mg/mL (≈ 1.6 µM); under `COc1ccc2[nH]c(C(=O)Nc3ccc(F)cc3Br)cc2c1`, below 0.0004 mg/mL.
Under `O=C(COc1ccccc1[N+](=O)[O-])Nc1ccc2c(c1)OCO2` stands 0.0017 mg/mL (≈ 5.38 µM); under `O=S(=O)(c1ccccc1)N(Cc1cccc(F)c1)c1ccccc1`, below 0.0007 mg/mL.
Under `O=[N+]([O-])c1ccc(SCCc2ccccn2)cc1` stands 0.0306 mg/mL (≈ 118 µM).
As to `Cc1cccc(C)c1NC(=O)c1cccc(C(=O)Nc2c(C)cccc2C)n1`, the kinetic solubility is 0.0277 mg/mL (≈ 74.2 µM).
Under `C#CC(C)(C)NC(=S)NC1CC2C=CC1C2` (stereo unspecified) stands 0.028 mg/mL (≈ 119 µM); under `CCOC(=O)CN1C(=N)N(c2nc(NC(C)C)nc(OC)n2)CC1=O`, above 0.0527 mg/mL; under `CC(=Nc1ccccc1N)c1c(O)n(C)c(=O)[nH]c1=O`, above 0.0411 mg/mL.
`O=C(CSc1nc2ccccc2o1)NC1CCS(=O)(=O)C1` (stereo unspecified) displayed a solubility (kinetic) above 0.049 mg/mL.
Take `CC1(C)OCC(COC(=O)Nc2cccnc2)([N+](=O)[O-])CO1`: the kinetic solubility was 0.0398 mg/mL (≈ 128 µM).
In the case of `COc1cc(Cl)c(C)cc1NC(=O)CCNC(=O)c1ccco1` it was above 0.0505 mg/mL; in that of `CCOC(=O)C(CC)Sc1cc(C)nc2ccc(OC)cc12` (stereo unspecified), 0.0348 mg/mL (≈ 109 µM).
With `Cc1ccc(Nc2nc(-c3cccnc3)cs2)cc1Cl`, the solubility (kinetic) was found to be 0.0003 mg/mL (≈ 0.994 µM).
In the case of `C/C(N)=C(/C#N)C(=O)COC(=O)C1CCN(S(=O)(=O)c2cccs2)CC1` it was 0.0109 mg/mL (≈ 27.4 µM); in that of `CC(C)CCNC(=O)C1CCC(=O)N1CCc1ccccc1` (stereo unspecified), 0.0428 mg/mL (≈ 142 µM).
Under `Cc1nc2ccc(NC(=O)C3=NN(C)C(=O)CC3)cc2s1` stands above 0.0454 mg/mL.
In the case of `COc1ccc(-c2cc(C(=O)Nc3ccccc3F)on2)cc1` it was below 0.0003 mg/mL.
Consider `CNc1nc(NCc2ccccc2)nc(N)c1[N+](=O)[O-]`, for which the kinetic solubility was 0.0028 mg/mL (≈ 10.2 µM).
In the case of `CC(C)CC(=O)N1CCN(Cc2ccc(Cl)cc2)CC1` it was 0.0284 mg/mL (≈ 96.3 µM); in that of `CC(=O)C(C(C)=O)C(c1ccccc1)c1nc2ccccc2[nH]c1=O` (stereo unspecified), 0.0009 mg/mL (≈ 2.69 µM).
Under `Cc1ccc(Nc2nc(-c3ccncc3)nc3ccccc23)cc1` stands below 0.0002 mg/mL.
In the case of `COc1ccc(NC(=S)N2CCN(Cc3ccc(C)cc3)CC2)cc1`, the kinetic solubility is 0.0004 mg/mL (≈ 1.13 µM).
In the case of `Cc1noc(C)c1-c1nc(CSc2ccccc2)no1` it was 0.0008 mg/mL (≈ 2.78 µM).
In the case of `O=C(COC(=O)c1ccc(Cl)cc1)NCC1CCCCC1` it was 0.0054 mg/mL (≈ 17.4 µM); in that of `CC(C)C(=O)Nc1ccccc1Cc1ccccc1`, 0.0107 mg/mL (≈ 42.2 µM); in that of `COc1cc(NC(=O)C2C3CCC(O3)C2C(=O)O)cc(OC)c1` (stereo unspecified), above 0.0482 mg/mL.
Compound `O=S(=O)(Nc1ccccn1)c1ccc(Br)cc1` returned a solubility (kinetic) of 0.0379 mg/mL (≈ 121 µM).
